Measurements reported in PubChem BioAssay (NCI).
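1) Cells in 96-well plates. 2) Compound, 48 h, 5 concentrations. 3) Linear interpolation between surrounding doses. 4) Unreached endpoint = highest concentration. At the TGI there is no net growth.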 *1 amine or outer side, *2 acyl side, *3 side chain or, on linkers, in order; H or OH if unused. Where a SMILES comes first, the peptide text is derived from it. [ ]: non-standard residue; d: D form. X33 = C=CCC(O[*:1])C(=O)[*:2]; NMeV = CN[CH](C(=O)O)C(C)C; NMeA = CN[CH](C)C(=O)O; βAla = NCCC(=O)O

Experiments:
Assay in all cases: DTP human tumour cell line panel, 48 h
SK-MEL-5 melanoma = test system: SK-MEL-5 melanoma
SNB-19 CNS = test system: SNB-19 CNS
OVCAR-5 ovarian = test system: OVCAR-5 ovarian
T-47D breast = test system: T-47D breast
RXF 393 renal = test system: RXF 393 renal
MOLT-4 leukemia = test system: MOLT-4 leukemia
ACHN renal = test system: ACHN renal
SF-539 CNS = test system: SF-539 CNS
HT29 colon = test system: HT29 colon
K-562 leukemia = test system: K-562 leukemia
MCF7 breast = test system: MCF7 breast
HCT-116 colon = test system: HCT-116 colon
NCI-H522 lung = test system: NCI-H522 lung
EKVX NSCLC = test system: EKVX NSCLC
HCC-2998 colon = test system: HCC-2998 colon
COLO 205 colon = test system: COLO 205 colon
RPMI-8226 leukemia = test system: RPMI-8226 leukemia
DU-145 prostate = test system: DU-145 prostate

| Structure (SMILES) | TGI (SK-MEL-5 melanoma) [µM] | TGI (SNB-19 CNS) [µM] | TGI (OVCAR-5 ovarian) [µM] | TGI (T-47D breast) [µM] | TGI (RXF 393 renal) [µM] | TGI (MOLT-4 leukemia) [µM] | TGI (ACHN renal) [µM] | TGI (SF-539 CNS) [µM] | TGI (HT29 colon) [µM] | TGI (K-562 leukemia) [µM] | TGI (MCF7 breast) [µM] | TGI (HCT-116 colon) [µM] | TGI (NCI-H522 lung) [µM] | TGI (EKVX NSCLC) [µM] | TGI (HCC-2998 colon) [µM] | TGI (COLO 205 colon) [µM] | TGI (RPMI-8226 leukemia) [µM] | TGI (DU-145 prostate) [µM] |
| --- | --- | --- | --- | --- | --- | --- | --- | --- | --- | --- | --- | --- | --- | --- | --- | --- | --- | --- |
| O=c1c2cn[nH]c2nc2scc(-c3ccc(Cl)cc3)n12 | > 100 | > 100 | > 100 | > 100 | > 100 | > 100 | > 100 | > 100 | > 100 | > 100 | > 100 | > 100 | > 100 | > 100 | > 100 | > 100 | > 100 | – |
| NC(CCCCNC(=O)CNC(=O)OCc1ccccc1)C(=O)NC(CCCCNC(=O)CNC(=O)OCc1ccccc1)C(=O)NC(CCCCNC(=O)CNC(=O)OCc1ccccc1)C(=O)NC(CCCCNC(=O)CNC(=O)OCc1ccccc1)C(=O)NC(CCCCNC(=O)CNC(=O)OCc1ccccc1)C(=O)NC(CCCCNC(=O)CNC(=O)OCc1ccccc1)C(=O)O (centres undefined) | > 75 | > 75 | > 75 | > 75 | – | > 75 | > 75 | – | > 75 | > 75 | > 75 | > 75 | > 75 | – | > 75 | – | > 75 | > 75 |
| CN(C)CCn1c(=O)c2ccc3c4c(nn3CCN(C)C)c3cc(O)ccc3n(c1=O)c24 | 0.787 | 1 | 1.26 | > 39.2 | 0.977 | 0.127 | 0.689 | 3.15 | 0.262 | 1.56 | 0.392 | 1.08 | 0.0292 | 0.366 | 0.176 | 0.609 | 0.406 | – |
| C=CCC1OC(=O)CCNC(=O)C(C)N(C)C(=O)C(C(C)C)N(C)C(=O)C(C(C)CC)NC(=O)C2CCCN2C1=O (centres undefined) (cyclo([X33]PI[NMeV][NMeA][βAla]); configuration not given here) | 6.12 | > 100 | > 100 | > 100 | – | > 100 | > 100 | > 100 | > 100 | – | > 100 | > 100 | > 100 | > 100 | > 100 | > 100 | 7.84 | > 100 |
| COc1cccc2nc3cc(C)c(C)cc3nc12 | > 100 | > 100 | > 100 | – | > 100 | > 100 | > 100 | > 100 | > 100 | > 100 | – | > 100 | > 100 | > 100 | > 100 | > 100 | – | – |
| O=C(/C=C/c1ccc(Cl)cc1)c1cccs1 | 32.5 | 33.4 | – | 45.1 | – | 52.8 | 37.5 | > 100 | > 100 | > 100 | 15.8 | 33.8 | – | 68 | 37.5 | 37.9 | 8.29 | > 100 |
| CCOc1ncn(-c2ccc(NC(=S)NC34CC5CC(CC(C5)C3)C4)cc2)n1 | > 100 | > 100 | > 100 | > 100 | – | > 100 | – | > 100 | > 100 | > 100 | > 100 | > 100 | > 100 | > 100 | > 100 | > 100 | > 100 | > 100 |
